Experiment [1] relates to KCa2.3. The settings on record: KCa2.3, CHO cells, ref Hosseini et al. 2000; read-out: IC50 for inhibition of KCa2 current; cited from earlier work.
Experiment [2] deals with T1, KCa2.2 (Rattus norvegicus, UniProt P70604).
T1 construct: expressed in transfected cells; host or cells: HEK 293 cells, transient transfection (Lipofectamine 2000) with channel plasmid plus a separate GFP plasmid; Some experiments used stably transfected cells
Put plainly: Competition binding: inhibition of 125I-apamin binding to HEK 293 cells expressing KCa2.2. Conditions: for Ki: KCa2.2, Cheng-Prussoff correction, read-out: K i for displacement of mono-iodoapamin. Here is the method: (§1) Radio-ligand binding studies were conducted using HEK 293 cell lines stably expressing KCa2.2 or KCa2.3. The cells were cultured in DMEM supplemented with 10% foetal calf serum, 2 mM L-glutamine, penicillin (200 units ml^–1) and streptomycin (100 µg ml^–1) in T500 flasks (Nunc). When confluent, these cells were harvested mechanically (to avoid the use of trypsin) into Ca^2+/Mg^2+ free HBSS. The cells were centrifuged at 50 g for 2 min, resuspended in DMEM at a density of approximately 2.5×10^6 cells ml^–1 and stored at 4°C until used (<2 hr). Cell density was estimated using a haemocytometer.
(§2) Routinely, incubations were performed in a total volume of 250 µl comprising 100 µl cell suspension (∼250000 cells), 100 µl ^125I-apamin and 50 µl displacing agent or incubation medium. The incubation medium contained (in mM) NaCl 140, KCl 5, MgCl2 1, CaCl2 2, glucose 10 and HEPES 10. The pH was adjusted to 7.4 with 1 M NaOH. Non-specific binding was estimated in the presence of 100 nM UCL 1848, a potent KCa2 channel blocker which causes maximal inhibition at this concentration (see Hosseini et al., Benton et al.[13]). Measurements for each test were performed in triplicate. Separation of cells from unbound ligand was achieved by rapid filtration through Whatman GF/B filters pre-treated with 0.3% v/v polyethyleneimine using a Skatron AS harvester. The quantity of labelled apamin bound was measured using a calibrated γ counter (LKB 1275) and expressed as fmol label/10^6 cells. All binding experiments were conducted at room temperature (20–25°C).
(§3) The ability of test compounds to inhibit ^125I-apamin binding was measured in the presence of 20–60 pM ^125I-apamin with or without the test compound. In every experiment each concentration of inhibitor was tested in triplicate and the data presented represents the mean of at least two separate experiments. Inhibition curves were fitted by a variant of Hill-Langmuir equation: [drawing 3] where B I is the specific binding of label in the presence of inhibitor as a percentage of the binding in its absence. Estimates of K i were obtained using the Cheng-Prussoff correction taking estimates of K L from the saturation binding studies.

The target of experiment [3] is T1, KCa2.2. Kind of experiment: cell-based. The experiment is classed as cell-based. The settings on record: for IC50: KCa2.2, standard physiological solution, measured at −20 mV, read-out: IC50 for inhibition of KCa2 current; for common Hill slope of concentration-inhibition curves: KCa2.2 current, standard solution. The protocol:
For electrophysiology, wild type and stably transfected HEK cells were plated in 35 mm dishes. In most experiments KCa2.2 was transiently expressed in HEK 293 cells. Transient transfection was achieved using Lipofectamine 2000 (Invitrogen) according to the manufacturer's instructions. Briefly, 2 µg channel plasmid and 1 µg QBI (QBiogene), which expresses GFP, was mixed with 3 µg Lipofectamine 2000 and added to each 35 mm dish. GFP expressing cells were identified by epi-fluorescence. Conventional whole cell recordings were made using an EPC9 amplifier controlled by Pulse software (Heka). Data were filtered at 1 kHz and acquired at 5 kHz. Borosilicate glass patch pipettes (2–5 MΩ) were coated with Sylgard resin, fire polished and filled with a solution containing (in mM): KCl 140, HEPES 10, K2HEDTA 5, and either 1.2 CaCl2 (free Ca^2+ = 1 µM) or no added Ca^2+ (free Ca^2+ <10 nM). The pH was adjusted to 7.2 with 1 M KOH. Free Ca^2+ concentrations were calculated using the REACT program (G.L. Smith, University of Glasgow) and stability constants for HEDTA published in Martell and Smith. Except where stated the extracellular solution was the same as the incubation medium used in binding experiments. As with binding studies all experiments were performed at room temperature (20–25°C).
Routinely, cells were held at −80 mV and 100 ms test pulses applied to potentials between −120 mV and 40 mV. […] In order to avoid contamination of KCa2 current by the endogenous currents, inhibition by blocking agents was measured at −20 mV.
Concentration-inhibition curves were fitted by a variant of the Hill equation with the form: [drawing 4] where y is the current in the presence of blocker at concentration [B] expressed as a percentage of control and n is the Hill coefficient.

For experiment [4], the target named is T2, KCa2.3 (Rattus norvegicus, UniProt P70605).
T2 construct: expressed in transfected cells; host or cells: HEK 293 cell line stably expressing KCa2.3, made in house by zeocin selection
T2 sequence (P70605 whole entry): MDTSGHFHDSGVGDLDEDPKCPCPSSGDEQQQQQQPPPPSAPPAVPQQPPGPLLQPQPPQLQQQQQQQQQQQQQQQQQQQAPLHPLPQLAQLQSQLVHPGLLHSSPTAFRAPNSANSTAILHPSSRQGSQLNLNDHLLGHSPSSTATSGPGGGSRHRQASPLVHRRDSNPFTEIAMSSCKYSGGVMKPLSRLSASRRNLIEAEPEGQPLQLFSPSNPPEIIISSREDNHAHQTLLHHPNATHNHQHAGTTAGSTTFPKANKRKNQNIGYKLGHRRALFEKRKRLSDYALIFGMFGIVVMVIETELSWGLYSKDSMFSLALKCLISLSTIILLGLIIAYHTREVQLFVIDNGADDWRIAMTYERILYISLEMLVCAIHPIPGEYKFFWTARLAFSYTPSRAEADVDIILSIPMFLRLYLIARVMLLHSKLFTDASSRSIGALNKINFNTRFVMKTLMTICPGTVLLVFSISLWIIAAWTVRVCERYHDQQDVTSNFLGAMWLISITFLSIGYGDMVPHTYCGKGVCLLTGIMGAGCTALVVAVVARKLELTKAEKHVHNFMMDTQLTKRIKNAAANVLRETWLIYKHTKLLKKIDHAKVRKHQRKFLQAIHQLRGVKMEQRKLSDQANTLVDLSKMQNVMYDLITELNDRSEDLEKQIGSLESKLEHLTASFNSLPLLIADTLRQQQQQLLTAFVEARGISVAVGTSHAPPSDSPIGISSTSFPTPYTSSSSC
Put plainly: Competition binding: inhibition of 125I-apamin binding to HEK 293 cells expressing KCa2.3. The settings on record: for Ki: KCa2.3, Cheng-Prussoff correction, read-out: K i for displacement of mono-iodoapamin. Here is the method: as §1, §2, §3

T1 sequence (P70604 whole entry): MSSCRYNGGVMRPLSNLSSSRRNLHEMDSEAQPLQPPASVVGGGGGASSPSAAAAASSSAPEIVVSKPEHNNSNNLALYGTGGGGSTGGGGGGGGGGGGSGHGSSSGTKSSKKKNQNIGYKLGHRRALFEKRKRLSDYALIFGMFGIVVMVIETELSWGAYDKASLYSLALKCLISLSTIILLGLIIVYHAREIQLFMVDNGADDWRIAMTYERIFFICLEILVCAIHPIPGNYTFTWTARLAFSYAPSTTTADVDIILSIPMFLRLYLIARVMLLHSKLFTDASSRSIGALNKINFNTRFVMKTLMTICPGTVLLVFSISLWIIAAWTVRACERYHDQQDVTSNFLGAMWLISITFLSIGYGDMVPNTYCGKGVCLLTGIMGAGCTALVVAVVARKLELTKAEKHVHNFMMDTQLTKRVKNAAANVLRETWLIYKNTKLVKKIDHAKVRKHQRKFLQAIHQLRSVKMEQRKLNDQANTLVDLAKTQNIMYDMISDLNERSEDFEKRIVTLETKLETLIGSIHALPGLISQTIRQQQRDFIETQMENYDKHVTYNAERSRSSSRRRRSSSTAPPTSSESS

By IC50 is commonly meant the point on the concentration scale where inhibition reaches its midpoint. “8,14-diaza-1,7(1, 4)-diquinolinacyclotetradecaphane [UCL 1848]”: the IC50 in experiment [1] is 2.1 ± 0.3 nM; in experiment [3] it was 0.125 ± 0.0025 nM. Besides, the “inhibition of total 125I-apamin binding” value in experiment [2] (100 nM UCL 1848, 30 pM 125I-apamin, KCa2.2 expressing HEK 293 cells) is “almost completely inhibited”; in experiment [4] (100 nM UCL 1848, 30 pM 125I-apamin, KCa2.3 expressing HEK 293 cells), “almost completely inhibited”. In addition, the Ki in experiment [2] was 0.095 ± 0.0017 nM; in experiment [4], 0.652 ± 0.18 nM. In addition, the “common Hill slope of concentration-inhibition curves” value in experiment [3] worked out at 0.7±0.04.
As for `Cc1cc(N)c2ccccc2[n+]1CCCCCCCCCC[n+]1c(C)cc(N)c2ccccc21` [Dequalinium, dequalinium], the 50% inhibitory concentration (IC50) in experiment [1] was 920 ± 140 nM; in experiment [3], 420 ± 99 nM. In addition, the values for the Ki in experiment [2] and in experiment [4] were 977 ± 165 nM and 865 ± 160 nM, respectively. Further, the “common Hill slope of concentration-inhibition curves” value in experiment [3] is given as 0.7±0.04.
As for `CC[N+](CC)(CC)CCOc1cccc(OCC[N+](CC)(CC)CC)c1OCC[N+](CC)(CC)CC` [Gallamine, gallamine], the IC50 in experiment [1] was 98000 ± 700 nM; in experiment [3], 7000 ± 800 nM. Further, the values for the Ki in experiment [2] and in experiment [4] were 26000 ± 5000 nM and 71000 ± 8000 nM, respectively. Further, the “common Hill slope of concentration-inhibition curves” value in experiment [3] worked out at 0.7±0.04.
Regarding `c1cc2cc(c1)C[n+]1ccc(c3ccccc31)NCc1ccc(cc1)CNc1cc[n+](c3ccccc13)C2` [UCL1684, 6,10–diaza-3(1,3),8(1,4)-dibenzena-1,5(1,4)- diquinolinacyclodecaphane], the IC50 in experiment [1] is 5.8 ± 0.3 nM; in experiment [3] it was 0.53 ± 0.008 nM. For the same molecule, the Ki is 1.01 ± 0.022 nM in experiment [2] and 7.7 ± 1.6 nM in experiment [4]. Moreover, the “common Hill slope of concentration-inhibition curves” value in experiment [3] turned out to be 0.7±0.04.
